Laboratory results published in patent US20230404969A1, “COMPOSITIONS AND METHOD FOR EFFECTIVE MANAGEMENT OF PERITONITIS” (priority 2022, published 2023).
Several values for one entry are separate records, joined by “and”; a condition that tells them apart may be missing. Identical values can stand only once.

Experiments:
[1] = system: Enterococcus faecalis (Gram positive); experiment: Bacterial translocation from the gut into organs: E. faecalis; format: in vivo; conditions: Withanone 2 mg/kg; positive/6 mice
Method: (§1) Peritoneal inflammation was induced by Zymosan A (Sigma Chemical) (Masashi et al. Zymosan, but Not Lipopolysaccharide, Triggers Severe and Progressive Peritoneal Injury Accompanied by complement Activation in a Rat Peritonitis Model) was prepared freshly in sterile, 0.9% w/v saline, and 0.5 ml was injected i.p. from day 0 to Day 5. The lymphocyte population in the peripheral blood was determined with a flow cytometer. Cells were phenotyped by flow cytometry with the following primary antibodies: CD4 (FITC) and CD8 (PE). Cells were gated broadly on all live lymphocyte cells, with only debris and multiple cell clusters being excluded. Analysis of mean fluorescence intensity was done and percentage cell population was evaluated. The test drugs were administered for 30 days after the induction of peritonitis. On 36th day the peritoneal cavity was lavaged with 1.5 ml saline, and after a 30-s gentle manual massage, 0.5 ml exudate was retrieved, centrifuged at 3000 g for 3 min, and frozen at […] prior to cytokine and chemotactic-factor assessment.
(§2) Intestine serves as a barrier in preventing gut bacteria and/or endotoxin from spreading to organs and tissues. It is also known that bacterial translocation occurs in critically ill or immunocompromised patients, and the physical disruption of mucosal barrier in vivo rodent models seem to be a key factor Tor translocation (Deitch et al. Effect of hemorrhagic shock on bacterial translocation, intestinal morphology, and intestinal permeability in conventional and antibiotic-decontaminated rats; Critical Care Medicine; 1990 18(5)). Bacterial translocation from the gut into the peritoneal cavity and organs was analyzed. The mesenteric lymph nodes, liver, and spleen of mice, study group of 30, were removed using sterile instruments. The organs were then homogenized in 1 ml of sterile cooked meat broth and 50 μl of organ homogenate was spread on blood agar plates to detect aerobic bacteria and Eosin Methylene blue agar plates to detect specially for E. coli. These plates were then incubated at 37° C. for 2 days. […]

[2] = system: polymorphonuclear leukocytes, macrophages, lymphocytes; experiment: Zymosan A induced peritonitis, acute study: intraperitoneal cellular influx; format: in vivo, BALB/c male mice; conditions: 2 mg/kg p.o (of 0.5, 1, 2, 4 mg/kg); 4, 12, 24 and 48 hrs after Zymosan A i.p.
Method: Peritoneal inflammation was induced according to Doherty et al. in BALB/c male mice aged 6-8 weeks. Zymosan A (Sigma Chemical) was prepared freshly (2 mg/ml) in sterile, 0.9% w/v saline, and 0.5 ml was injected i.p. Zymosan A is a cell wall component of fungus, caused proliferative peritonitis with severe accumulation of inflammatory cells. At the selected time points 4, 12, 24 and 48 hrs, the peritoneal cavity was lavaged with 1.5 ml saline, and after a 30-s gentle manual massage, 0.5 ml exudate was retrieved, centrifuged at 3000 g for 3 min. 0.5 ml exudate was collected and used freshly for cell counts.

IL-1β = experiment: Intracellular IL-1β estimation in LPS activated murine neutrophils (flow cytometry); format: cell-based; conditions: 5 μg/ml, LPS 1 μg/ml, 3 h, ↑ upregulation
Method: (§3) Flowcytometric studies were carried out to determine the anti-inflammatory effect of active constituents of Withania somnifera extract on TNF-α and IL-1β cytokine expression in LPS activated murine neutrophils.
(§4) TNF-α and Interleukin 1 beta (IL-1β) cytokines play a major role in the pathogenesis of septic shock induced by LPS (Lipopolysaccharide) endotoxin injection. LPS is an important triggering factor for in vivo systemic inflammatory response. LPS activates neutrophils via engagement of TLR4 (Toll-like receptor 4), resulting in the induction of a characteristic proinflammatory phenotype and prolongation of cell lifespan. In brief, neutrophils extraction was performed by taking murine blood and centrifuging it at 250 g for 20 min. Middle layer was taken and layered with histopaque and incubated for 10 min. The samples were centrifuged at 700 g, the upper layer was taken and Facs Lysing solution added for the lysis of any traces of RBC. The samples were washed with PBS (200 g) for 10 min. Neutrophils were stimulated with. LPS (1 μg/ml) and incubated with test samples for 3 h, in CO2 incubator. […] A fluorescence trigger was set on the […] parameter of the gated neutrophil populations (10,000 events). Fluorescence compensation, data analysis, and data presentation was performed using Cell Quest Pro software (Beckton—Dickinson Biosciences, CA, USA). […]

TNF-α [3] = experiment: Intracellular TNF-α estimation in LPS activated murine neutrophils (flow cytometry); format: cell-based; conditions: 5 μg/ml, LPS 1 μg/ml, 3 h, ↑ upregulation
Method: as §3, §4

gut bacteria = experiment: Bacterial translocation from the gut into organs: total of study group of 30; format: in vivo; conditions: Withanone 2 mg/kg; positive/30 mice
Method: as §1, §2

TNF-α [4] = experiment: Extracellular in vivo TNF-α estimation in serum from treated mice after LPS injection (ELISA); conditions: 1 mg/kg p.o for 6 days, serum 90 mins after LPS injection, ↑ upregulation
Method: BALM male mice aged 6-8 weeks were maintained at 22±2° C. under 12/12 h light dark cycle. Mice received oral treatment of test drugs at graded doses (w/v) for 6 days, followed by intravenous injection of 1 mg/kg (Brieva et al. Immunoferon, a glycoconjugate of natural origin, inhibits LPS-induced TNF-α production and inflammatory responses. International Immunopharmacology (2001) 1, 1979-1987). Six mice were employed in each group and experiments were performed in triplicates. Blood was collected from retro-orbital plexus of the experimental animals and serum was separated. TNF-α, IL-1β production was evaluated by a commercial ELISA kit in serum from treated mice, 90 mins after LPS injection.

SMILES: CC1=C(C)C(=O)O[C@@H]([C@@H](C)[C@@]2(O)CC[C@H]3[C@@H]4[C@@H]5O[C@@H]5[C@@]5(O)CC=CC(=O)[C@]5(C)[C@H]4CC[C@@]32C)C1 [Withanone]
- Bacterial translocation, Liver, E. faecalis [1]: 1/6
- Bacterial translocation, Mesenteric Lymph Nodes, E. faecalis [1]: 2/6
- Bacterial translocation, Spleen, E. faecalis [1]: 0/6
- Inhibition of intraperitoneal cellular influx [2]: maximum effect in inhibiting cellular influx
- Percentage IL-1β inhibition compared to LPS control (IL-1β): 32%
- Percentage TNF-α inhibition compared to LPS control (TNF-α [3]): 53%
- Bacterial translocation, Liver, total (gut bacteria): 3/30
- Bacterial translocation, Mesenteric Lymph Nodes, total (gut bacteria): 5 out of 30 and 5/30
- Bacterial translocation, Spleen, total (gut bacteria): 3/30
- Percentage TNF-α inhibition compared to LPS control (TNF-α [4]): 37.05%
